Assay results: publication PMC7016953 (Cells, 2020)

Biological target: T1, TRPC3 (Homo sapiens, UniProt Q13507)
T1 construct: expressed in transfected cells
T1 sequence (Q13507 1-848 isoform Q13507-3): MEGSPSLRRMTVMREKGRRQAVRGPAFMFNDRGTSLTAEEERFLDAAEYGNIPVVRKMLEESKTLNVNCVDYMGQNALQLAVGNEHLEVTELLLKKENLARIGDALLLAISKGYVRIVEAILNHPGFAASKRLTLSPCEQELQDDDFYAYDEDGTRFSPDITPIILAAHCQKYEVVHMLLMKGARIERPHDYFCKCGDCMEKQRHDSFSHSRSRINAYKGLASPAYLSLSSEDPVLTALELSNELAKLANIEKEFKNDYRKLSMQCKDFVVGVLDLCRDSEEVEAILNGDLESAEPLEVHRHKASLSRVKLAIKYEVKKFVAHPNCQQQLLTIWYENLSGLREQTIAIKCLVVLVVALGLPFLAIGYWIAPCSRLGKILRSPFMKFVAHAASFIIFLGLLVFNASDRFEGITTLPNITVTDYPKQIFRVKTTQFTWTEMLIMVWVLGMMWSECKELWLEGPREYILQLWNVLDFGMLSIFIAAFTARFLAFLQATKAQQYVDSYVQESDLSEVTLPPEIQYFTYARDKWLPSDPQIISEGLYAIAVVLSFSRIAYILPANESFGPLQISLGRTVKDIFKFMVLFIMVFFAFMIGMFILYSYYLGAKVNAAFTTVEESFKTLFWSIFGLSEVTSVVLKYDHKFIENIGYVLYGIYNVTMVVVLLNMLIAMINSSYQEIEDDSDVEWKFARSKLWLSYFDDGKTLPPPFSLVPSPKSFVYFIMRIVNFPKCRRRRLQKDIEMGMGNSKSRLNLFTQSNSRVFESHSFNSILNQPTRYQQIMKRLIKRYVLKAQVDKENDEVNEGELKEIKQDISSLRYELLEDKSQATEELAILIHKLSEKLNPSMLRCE
Assay: Outside-out patch recordings from HEK TRPC3-YFP cells
Assay type: cell-based
Details: 50 µM, outside-out patches, −100 mV, n = 6
Protocol: The recordings of TRPC3, TRPC6, or TRPC7 membrane currents in HEK293 or PC12 cells were realized by using a Multiclamp 700B amplifier with a Digidata 1440A digitizer controlled by the PClamp 10 software (all Molecular Devices, Sunnyvale, CA, U.S.A.). Recordings were obtained at room temperature either in the whole-cell or in an outside-out configuration as indicated. Cells were seeded as described above, but at lower density, mounted in a chamber (Warner Instruments, Hamden, CT; U.S.A.), placed onto the stage of an inverted microscope, and perfused with required solution. The standard extracellular solution contained 140 mM NaCl, 5 mM CsCl, 2 mM MgCl2, 1 mM CaCl2, 10 mM HEPES, and 0.035% BSA adjusted to pH 7.4 with NaOH. The composition of standard intracellular solution was 140 mM CsCl, 1 mM MgCl2, 5 mM EGTA, and 10 mM HEPES adjusted to pH 7.25 with CsOH; the osmolarity was 295 mOsm l^−1. In outside-out measurements, the pipette solution contained 5 mM EGTA and 1.1 mM CaCl2 to achieve a calculated free Ca^2+ concentration of 100 nM. […]
Outside-out patches were obtained from HEKTRPC3-YFP cells, and ionic currents were continuously recorded at a patch potential of –100 mV. […] (B) The open probability (Po) for the unknown number N of channels in the patch of the experiment shown in (A) was calculated over 2 s bins and plotted at the same time scale.

increase in the open probability: about 5.5 fold
SMILES: C[C@@H]1CC[C@H]2[C@@H](C)C(=O)O[C@@H]3O[C@@]4(C)CC[C@@H]1[C@]32OO4 [artemisinin]
